One molecule from patent US20150087722A1, “TREATMENT FOR BREAST TUMOR CELL METASTASIS” (China Medical University, priority 2012, published 2015) can be followed below.

Assay [1] has as its system Normal Endothelial Cell (EAhy926 cell strain). Put plainly: MTT cell viability assay. The assay is classed as cell-based, human. The procedure:
The cell viability was determined by a method of […] (MTT assay). The test method for assaying cell viability refers to steps provided by Parada-Turska et al.
The breast tumor cells MDA-MB-231 were inoculated in a 24-well plate (2.5×10^5 cells/well), and the next day after cells were adhered to the wall of the plate, the cells were washed with PBS. 1% FBS-DMEM culture medium was then added so as to synchronize cells. The next day compound II having different concentrations were added into the wells, and the cells were subsequently cultured in an atmosphere of 5% CO2 at 37° C. for 24 h. The cells were washed with PBS once, and 400 μl MTT agent was added in each well so as to react for 4 h. […] 200 μl supernatant was taken from the well and then added into a 96-well microplate, so as to measure the absorbance at 570 nm.
In the MTT assay, the umbilical vein endothelial cells (EAhy926 cell strain) was planted 80 percent full and cultured in a 1×HAT culture medium including 15% FBS-DMEM, 1% glutamine and 1% PSN (used for screening cells having the characteristic of cell fusion). […] The culture medium was replaced in 24 h before the experiment, and the number of cells was counted by a hemocytometer. […] The supernatant was taken and putted into a 96-well microplate, and then the absorbance was measured at a wavelength of 570 nm.
For orientation: Tetrazolium dyes change colour on reduction, which living cells bring about.

The test system of assay [2] is PI3K and Akt in breast tumor cells. Put plainly: western blotting of PI3K and Akt and phosphorylation. The assay is classed as cell-based, human. To be noted: 2 μM, 0-120 min. The procedure: The steps of western blotting include: washing cells with PBS twice at 4° C.; adding a lysis buffer and rubbing the cells by a rubbr policeman so as to lyse cells; putting the lysed cell solution into a 1.5 ml microcentrifuge tube and shaking for 1 min; centrifuging at 12000 rpm for 10 min and taking the supernatant; measuring concentration of the protein through a Bio-Rad protein assay kit; and storing the remained extracted protein solution at −70° C.; taking 100 μg protein solution and adding a SDS/protein loading buffer having the same volume, where the SDS/protein loading buffer has a concentration two times larger than the protein solution; boiling the mixture of the protein solution and the SDS/protein loading buffer at 100° C. for 10 min; cooling and loading the protein samples in each hole of gel; adjusting the voltage to 100 V and running the protein samples on the gel until the tracking dye in the sample buffer reaches the bottom of the gel; and subsequently transferring the protein from the gel using electrophoresis. […] Then luminescence image equipment was used, where the PVDF was placed onto a black metal plate by a plastic pincer and the face including protein was upwards, a 1:1 mixed Chemiluminesent Substrate was added into the membrane and the exposure time depends on the fluorescence intensity of antibodies. […]

The test system of assay [3] is MMP-9 and MMP2 generated by cells induced by TNF-α. Nature of the assay: Zymography enzyme activity assay of cells stimulated by TNF-α. It is filed as cell-based. The conditions noted are these: 20 μM, 10 ng/mL TNF-α. The procedure:
In the Zymography enzyme activity assay, the cells (1×10^6) were planted in a 6-well plate. The next day after the cells were adhered to the wall, the cells were cultured in a serum free DMEM culture medium at an atmosphere of 5% CO2 in an incubator at 37° C. for 24 h. The compound II in different doses were added into the DMEM culture medium. In other test groups, the compound I was added, TNF-α/TGF-β were added or the compound I and TNF-α/TGF-β were added into the DMEM culture medium, wherein the concentration of compound I and TNF-α/TGF-β were […] and 10 ng/ml, respectively. The cells were cultured in the culture medium for 2 h and then washed with PBS. The cell culture medium was putted into a microcentrifuge tube and centrifuged for 10 min at 1500 rpm. The supernatant was taken to perform a protein gel electrophoresis (SDS-PAGE), so as to separate the proteins. Afterwards, the Gelatin or Casein was regarded as the substrate to analysis the enzyme activity of the proteins. Referring to FIG. 20, the Zymography enzyme activity assay was performed to detect the effect of the compound II on the enzyme activity of MMP-9 and MMP2 generated by cells induced and stimulated by 10 ng/mL TNF-α. The Zymography enzyme activity assay was described as the test example 4-1. […] Cells in the test groups included no the compound II. […]

As a reminder, the IC50 is the point on the concentration scale where inhibition reaches its midpoint. Consider `COC1=C(OC)C(=O)C(C)=C(C)C1=O` [compound II], for which the cell viability result in assay [1] (EAhy926, concentration above 10 μM, 10 ng/mL TNF-α/TGF stimulation, FIG. 18) is listed as “significantly decreased”. This molecule came in with a concentration for half-maximal inhibition (IC50) in assay [1] (Homo sapiens, EA.hy 926, viability, EAhy926 cell strain) of 35.1 µM. Further, in assay [2], the “phosphorylation of PI3K and Akt” value was “probably inhibited”; the “protein expression of PI3K and Akt” value is “not affected”. The “enzyme activity of MMP2” value in assay [3] is on record as “no enzyme activity”.
